Results published in US6875575B1, “Diagnostic methods for neoplasia” (OSI Pharmaceuticals, Inc., priority 1998, dated 2005).
“Also recorded” adds a separate entry of the source. Where two headings read alike, the source gives them in different places.

Assays:
[1] = test system: PDE peak B (novel cGMP-specific PDE); assay: cGMP hydrolysis by PDE peak B from SW-480 cells; assay type: biochemical, human
neoplastic cells = assay: Apoptosis induction in neoplastic cells; assay type: cell-based
PDE peak A (PDE5) = molecular target: T1, PDE peak A (PDE5) (Homo sapiens, UniProt O76074); assay: cGMP hydrolysis by PDE peak A from SW-480 cells; assay type: biochemical
T1 construct: SW-480 cells are collected and homogenized; endogenous in cells; host or cells: SW-480 cells; supernatant fractionated on DEAE-Trisacryl M, peak A

HT-29 cells = assay: Apoptosis and necrosis by morphology (acridine orange/ethidium bromide); assay type: cell-based; conditions: HT-29 cells treated for six days
Method: In one type of apoptosis assay, suspected neoplastic cells are removed from a patient. The cells are then grown in culture in the presence or absence of a cGMP-specific PDE inhibitor. Apoptotic cells are measured by combining both the attached and “floating” compartments of the cultures. The protocol for treating tumor cell cultures with PDE inhibitors and related compounds to obtain a significant amount of apoptosis has been described in the literature. (See, Piazza, G. A., et al., Cancer Research, 55:3110-16, 1995, which is incorporated herein by reference). The novel features of this assay include collecting both floating and attached cells, identification of the optimal treatment times and dose range for observing apoptosis, and identification of optimal cell culture conditions. […]
Apoptotic and necrotic cell death was determined as previously described (Duke and Cohen, In: Current Protocols in Immunology, 3.17.1-3.17.16, New York, John Wiley and Sons, 1992). […]
The diagnostic method of this invention is used to determine whether a particular neoplasia is sensitive to treatment with a cGMP-specific PDE inhibitor. The apoptosis inducing activity for a series of phosphodiesterase inhibitors, specific for different PDEs, was determined. […] Apoptosis and necrosis were determined morphologically after acridine orange and ethidium bromide labeling in accordance with the assay described, supra.

normal mucosa = assay: Apoptosis clinical study: ALI in normal mucosa; assay type: in vivo, human; conditions: any of the treatment groups
Method: (§1) Increases in apoptosis are indicative that the neoplasia in question is sensitive to treatment with a cGMP-specific PDE inhibitor, such as sulindac sulfone (aposulind). A human in vivo aposulind-induced selective induction of apoptosis in colonic polyps is described below. Six familial polyposis patients per group were administered one of three doses of aposulind (200 mg, 400 mg which was later lowered to 200 mg for most patients in the group, or 300 mg) twice daily (BID).
Biopsies are taken from patients and used to investigate possible cellular mechanisms of apoptosis. Biopsy samples are placed in transfer media (500 ml RPMI 1640 containing 50 ml fetal calf serum, 5×10^8 units penicillin G, and 5×10^6 μg streptomycin) and kept on ice for less than 1 hour until transfer to the pathology department. Upon receipt in the pathology department, samples are removed from the transfer media and oriented mucosa up, serosa down on filter paper, placed between biopsy sponges in a tissue cassette, and fixed in 10% neutral buffered formalin for 24 hours. […]
(§2) Apoptotic and nonapoptotic cells are counted on the basis of staining and morphology. An apoptotic labeling index (ALI) is calculated by dividing the total number of apoptotic cells counted by the total number of epithelial cells counted and expressing the quotient as a percentage.

[2] = test system: colonic polyps (dysplastic tissue); assay: Apoptosis clinical study: apoptotic labeling index (ALI) in polyps; assay type: in vivo, human
Method: as §1
Biopsies are taken from patients and used to investigate possible cellular mechanisms of apoptosis. Biopsy samples are placed in transfer media (500 ml RPMI 1640 containing 50 ml fetal calf serum, 5×10^8 units penicillin G, and 5×10^6 μg streptomycin) and kept on ice for less than 1 hour until transfer to the pathology department. Upon receipt in the pathology department, samples are removed from the transfer media and oriented mucosa up, serosa down on filter paper, placed between biopsy sponges in a tissue cassette, and fixed in 10% neutral buffered formalin for 24 hours. Samples are then transferred to 70% ethanol and embedded in paraffin. Samples are oriented perpendicularly to the tissue cassette during final orientation in paraffin for longitudinal crypt exposure and easy visualization of mucosa and the relation to the basement membrane.
Four micron sections of tissue were cut, mounted, deparaffinized, rehydrated in graded alcohol, and treated with pepsin (5 mg/ml) to digest protein in the tissue. Sections were washed and treated with 2% hydrogen peroxide (H2O2) in PBS to quench endogenous peroxidase and washed again. Tissue samples were then circled with a PAP pen (Research Products Int., 800-323-9814) to produce a hydrophobic barrier to concentrate reagents on the sample. […]
as §2

| inhibition of peak A / PDE5 (in words) (PDE peak A (PDE5)) | SMILES | inhibition of peak B / new cGMP-PDE (in words) [1] | induction of apoptosis in neoplastic cells (in words) (neoplastic cells) | also measured |
| --- | --- | --- | --- | --- |
| competitively inhibit | COc1cc(/C=C2/C(C)=C(CC(=O)NCc3ccccc3)c3cc(F)ccc32)cc(OC)c1OC [Compound E, (Z)-5-fluoro-2-methyl-1-(3,4,5-trimethoxybenzylidene)-3-indenylacetamide, N-benzyl] | competitively inhibit | induce apoptosis in neoplastic cells | – |
| inhibit | CSc1ccc(/C=C2/C(C)=C(CC(=O)O)c3cc(F)ccc32)cc1 [Sulindac sulfide, sulindac sulfide] | inhibit | induce apoptosis in neoplastic cells | apoptotic and necrotic cell death (FIG. 1) (HT-29 cells): capable of causing apoptotic cell death without inducing neoplastic cell necrosis; inhibition of peak B / new cGMP-PDE (in words) ([1]; listed as sulindac sulfide): competitively inhibit; inhibition of peak A / PDE5 (in words) (PDE peak A (PDE5); listed as sulindac sulfide): competitively inhibit |
| – | CC1=C(CC(=O)O)c2cc(F)ccc2/C1=C\c1ccc(S(C)(=O)=O)cc1 [Exisulind, (Z)-5-fluoro-2-methyl-1-[[4-(methylsulfonyl)phenyl]methylene]indene-3-yl acetic acid] | – | – | apoptotic and necrotic cell death (FIG. 1) (HT-29 cells): capable of causing apoptotic cell death without inducing neoplastic cell necrosis; normal mucosa ALI versus baseline ALI during treatment (normal mucosa): no significant change; change in ALI following treatment ([2]; 200 mg BID group): did not demonstrate any elevation in ALI; change in ALI in polyps ([2]; 300 mg BID, six months of treatment): two fold increase in ALI; change in ALI of dysplastic tissue following drug treatment ([2]; 400/200 mg BID group when uniformly dosed at 400 mg BID): two-fold elevation in ALI |
| – | CC1(C)C(=O)Nc2ccc(C3=NNC(=O)CC3)cc21 [Indolidan] | relatively insensitive | – | – |
| competitive inhibition | CCCOc1ccccc1-c1nc2nn[nH]c2c(=O)[nH]1 [Zaprinast] | relatively insensitive to inhibition; also recorded: zaprinast-insensitive | do not have significant apoptosis-inducing or growth-inhibiting properties | – |
| – | CCOC(=O)C1=C[C@]2(CC)CCCN3CCc4c(n1c1ccccc41)[C@@H]32 [Vinpocetine] | relatively insensitive | – | – |
| – | O=C(O)C1CCN(c2nc(NCc3ccc4c(c3)OCO4)c3cc(Cl)ccc3n2)CC1 [Compound E4021] | E4021-insensitive | do not have significant apoptosis-inducing or growth-inhibiting properties | inhibition of peak B / new cGMP-PDE (in words) ([1]; listed as E402 1): relatively insensitive to inhibition |
| – | COc1ccc(C2CNC(=O)C2)cc1OC1CCCC1 (centres unmarked) [Rolipram] | relatively insensitive | – | – |

| SMILES | inhibition of peak A / PDE5 (in words) (PDE peak A (PDE5)) | inhibition of peak B / new cGMP-PDE (in words) [1] | induction of apoptosis in neoplastic cells (in words) (neoplastic cells) | also measured |
| --- | --- | --- | --- | --- |
| CCCc1nn(C)c2c(=O)[nH]c(-c3cc(S(=O)(=O)N4CCN(C)CC4)ccc3OCC)nc12 [Sildenafil] | inhibited activity of peak A | relatively insensitive to inhibition | do not have significant apoptosis-inducing or growth-inhibiting properties | – |
